Source: patent publication US20120115827A1, “3-AMINOBENZAMIDE COMPOUNDS AND VANILLOID RECEPTOR SUBTYPE 1 (VR1) INHIBITORS” (Japan Tobacco Inc., priority 2004, published 2012)
Counter-ions that a name gives are not always drawn.

Target: T1, human VR1 (Homo sapiens, UniProt Q8NER1)
T1 construct: expressed in transfected cells
Experiment: Inhibition of Ca2+ entry in cells caused by proton (VR1 agonist)
Format: cell-based
Details: Rat glioma (C6BU1) cells stably expressing human VR1; proton stimulation to pH 5.5; Fura 2-AM fluorescence; read-out: In vitro IC50
Description: The assay for evaluation of VR1 inhibition by the inventive compounds will be described below. The assay was intended to evaluate in vitro inhibition of Ca^2+ entry in cells caused by proton, one of the VR1 agonists.
Rat glioma (C6BU1) cells stably expressing human VR1 were suspended in 20 mM MES buffer (at pH 6.8, contg. 20 mM 2-morpholinoethanesulfonate (referred to as MES hereinafter), 115 mM NaCl, 5 mM KCl, 1 mM MgCl2 and 14 mM D-glucose) to make a cell density of 1×10^6 cells/mL. A fluorescent dye, Fura 2-AM solution (Dojindo Corporate, Cat. No. 343-05401) was added to the suspension to make a 5 μM concentration thereof. Further, Pluronic F-127 (Wako Pure Chemical Industries, Ltd., Cat. No. P6866) was added to make a 0.1% content thereof. Then, the suspension was incubated at 37° C. for 30 min. The cells were harvested and washed three times with 20 mM MES buffer. The cells were suspended again to make a cell density of 5×10^5 cells/mL. A 500-μL portion of the suspension was taken with a cuvette (MC MEDICAL, INC., Cat. No. SSR3121), to which […] MES buffer containing 250 mM CaCl2 was added to incorporate Ca^2+ into the cells. At the same time, 5 μL of a test compound solution (in a range of 100 μM to 10 nM in DMSO) was also added to provide a final concentration thereof in a range of 1 μM to 0.1 nM. Alternatively, 5 μl of DMSO was added as control to provide a final concentration of 1% DMSO. The suspension was set in an intracellular ionometer (CAF-110; JASCO) 10 min after those additions. The cells were stimulated with protons by addition of 60 μL of 20 mM MES buffer at pH 1.1 to the suspension to set its pH at 5.5. The activity of the test compound was determined as a difference between the minimum of fluorescence intensity before agonist stimulation and its maximum after the stimulation. The value of IC50 was derived from percentage of inhibition by the test compound compared with the control.

T1 sequence (Q8NER1 whole entry): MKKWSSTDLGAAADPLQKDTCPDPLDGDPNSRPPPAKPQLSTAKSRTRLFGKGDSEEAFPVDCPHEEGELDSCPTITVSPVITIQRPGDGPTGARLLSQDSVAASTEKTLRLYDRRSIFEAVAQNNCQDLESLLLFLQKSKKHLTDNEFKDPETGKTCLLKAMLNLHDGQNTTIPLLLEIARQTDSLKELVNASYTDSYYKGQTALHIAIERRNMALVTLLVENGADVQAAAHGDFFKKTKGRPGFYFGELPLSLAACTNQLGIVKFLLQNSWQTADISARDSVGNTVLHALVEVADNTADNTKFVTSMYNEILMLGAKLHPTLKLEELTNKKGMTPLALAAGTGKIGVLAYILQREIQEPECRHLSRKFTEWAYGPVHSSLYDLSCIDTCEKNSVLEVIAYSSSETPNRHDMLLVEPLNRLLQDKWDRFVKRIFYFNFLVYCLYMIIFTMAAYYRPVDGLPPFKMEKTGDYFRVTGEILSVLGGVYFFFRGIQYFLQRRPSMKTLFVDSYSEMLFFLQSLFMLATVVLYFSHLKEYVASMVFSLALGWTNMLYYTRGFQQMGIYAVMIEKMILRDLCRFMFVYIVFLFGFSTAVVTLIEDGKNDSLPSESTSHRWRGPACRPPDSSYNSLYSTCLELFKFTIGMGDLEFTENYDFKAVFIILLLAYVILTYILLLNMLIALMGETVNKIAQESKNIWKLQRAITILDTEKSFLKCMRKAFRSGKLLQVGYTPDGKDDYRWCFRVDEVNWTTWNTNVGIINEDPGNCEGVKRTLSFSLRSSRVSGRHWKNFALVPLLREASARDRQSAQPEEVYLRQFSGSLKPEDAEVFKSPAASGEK

Row | IC50 [nM] | SMILES
1 | ≤ 100 | COc1ccc(C(=O)Nc2ccc(OCC(C)C)cc2)cc1N(CCO)c1ccc(C)cn1 [Example 51, N-(4-isobutyloxyphenyl)-4-methoxy-3-[N-(5-methylpyridin-2-yl)-N-(2-hydroxyethyl)amino]-benzamide]
2 | 100 to 1000 | CN(C)C(=O)COc1ccc(C(=O)Nc2ccc(C(C)(C)C)cc2)cc1N(C)c1ncccc1Cl [Example 22, N-(4-tert-butylphenyl)-3-[N-(3-chloropyridin-2-yl)-N-methyl-amino]-4-(N,N-dimethylcarbamoylmethyl)oxybenzamide]
3 | ≤ 100 | CN(c1cc(C(=O)Nc2ccc(C(C)(C)C)cc2)ccc1O)c1ncccc1Cl [Example 15, N-(4-tert-butylphenyl)-3-[N-(3-chloropyridin-2-yl)-N-methyl-amino]-4-hydroxybenzamide]
4 | 100 to 1000 | CNC(=O)c1cnc(N(C)c2cc(C(=O)Nc3ccc(C(C)(C)C)cc3)ccc2Cl)c(Cl)c1 [Example 76, 6-{[5-(4-tert-butylphenylcarbamoyl)-2-chlorophenyl]-methyl-amino}-5-chloro-N-methylnicotinamide]
5 | 100 to 1000 | CCOC(=O)c1cnc(N(C)c2cc(C(=O)Nc3ccc(C(C)(C)C)cc3)ccc2Cl)c(Cl)c1 [Example 73, Ethyl 6-{[5-(4-tert-butylphenylcarbamoyl)-2-chlorophenyl]-methyl-amino}-5-chloronicotinate]
6 | ≤ 100 | Cc1ccc(C(=O)Nc2ccc(OCC(C)C)cc2)cc1N(CC(N)=O)c1ncccc1Cl [Example 65]
7 | ≤ 100 | NC(=O)CN(c1cc(C(=O)Nc2ccc(N3CCCCC3)c(F)c2)ccc1Cl)c1ncccc1Cl [Example 62, 4-chloro-3-[N-(3-chloropyridin-2-yl)-N-(carbamoylmethyl)amino]-N-(3-fluoro-4-piperidinophenyl)-benzamide]
8 | ≤ 100 | CC(C)(C)c1ccc(NC(=O)c2cccc(N(CCO)c3ncccc3Cl)c2)cc1 [Example 53, N-(4-tert-butylphenyl)-3-[N-(3-chloropyridin-2-yl)-N-(2-hydroxyethyl)amino]-benzamide]
9 | ≤ 100 | NC(=O)CN(c1cc(C(=O)Nc2ccc(OC(F)(F)F)cc2)ccc1Cl)c1ncccc1Cl [Example 60, 4-chloro-3-[N-(3-chloropyridin-2-yl)-N-(carbamoylmethyl)amino]-N-(4-trifluoromethoxyphenyl)-benzamide]
10 | ≤ 100 | CN(c1cc(C(=O)Nc2ccc(C(C)(C)C)cc2)ccc1F)c1ncccc1Cl [Example 9, N-(4-tert-butylphenyl)-3-[N-(3-chloropyridin-2-yl)-N-methyl-amino]-4-fluorobenzamide]
11 | ≤ 100 | COCc1cnc(N(CC(N)=O)c2cc(C(=O)Nc3ccc(C(F)(F)F)cc3)ccc2Cl)c(Cl)c1 [Example 72, 4-chloro-3-[N-(3-chloro-5-methoxymethylpyridin-2-yl)-N-(carbamoylmethyl)amino]-N-(trifluoromethylphenyl)-benzamide]
12 | ≤ 100 | CN(c1cc(Cl)cc(C(=O)Nc2ccc(C(C)(C)C)cc2)c1)c1ncccc1Cl [Example 23, N-(4-tert-butylphenyl)-5-chloro-3-[N-(3-chloropyridin-2-yl)-N-methyl]aminobenzamide]
13 | ≤ 100 | CN(c1cc(C(=O)Nc2ccc(C(F)(F)F)cc2)ccc1F)c1ncc(CO)cc1Cl [Example 82, 3-[N-(3-chloro-5-hydroxymethylpyridin-2-yl)-N-methyl-amino]-4-fluoro-N-(4-trifluoromethylphenyl)-benzamide]
14 | 100 to 1000 | CN(c1cccc(C(=O)Nc2ccc(C(C)(C)C)cc2)c1O)c1ncccc1Cl [Example 25, N-(4-tert-butylphenyl)-3-[N-(3-chloropyridin-2-yl)-N-methyl]amino-2-hydroxybenzamide]
15 | ≤ 100 | CC(C)COc1ccc(NC(=O)c2ccc(Cl)c(N(CCO)c3ncccc3Cl)c2)cc1C(=O)N(C)C [Example 56, 4-chloro-3-[N-(3-chloropyridin-2-yl)-N-(2-hydroxyethyl)amino]-N-(3-dimethylcarbamoyl-4-isobutyloxyphenyl)-benzamide]
16 | ≤ 100 | CNC(=O)c1cc(NC(=O)c2ccc(Cl)c(N(CCO)c3ncccc3Cl)c2)ccc1OCC(C)C [Example 55, 4-chloro-3-[N-(3-chloropyridin-2-yl)-N-(2-hydroxyethyl)amino]-N-(4-isobutyloxy-3-methylcarbamoylphenyl)-benzamide]

The next lines start with the molecule.

Row | SMILES | IC50 [nM]
17 | CN1c2cc(C(=O)Nc3ccc(C(C)(C)C)cc3)ccc2Oc2cccnc21 [Example 17, N-(4-tert-butylphenyl)-10-methyl-10H-benzo[b]pyrido[2,3-e][1,4]oxazine-8-carboxamide] | ≤ 100
18 | CN(c1cc(C(=O)Nc2ccc(C(C)(C)C)cc2)ccc1Cl)c1ncc(C(N)=O)cc1Cl [Example 75, 6-{[5-(4-tert-butylphenylcarbamoyl)-2-chlorophenyl]-methyl-amino}-5-chloronicotinamide] | ≤ 100
19 | COCc1cnc(N(CC(N)=O)c2cc(C(=O)Nc3ccc(OC(F)(F)F)cc3)ccc2Cl)c(Cl)c1 [Example 71, 4-chloro-3-[N-(3-chloro-5-methoxymethylpyridin-2-yl)-N-(carbamoylmethyl)amino]-N-(trifluoromethoxyphenyl)-benzamide] | ≤ 100
20 | CC(C)COc1ccc(NC(=O)c2cccc(N(CCO)c3ncccc3Cl)c2)cc1 [Example 52, 3-[N-(3-chloropyridin-2-yl)-N-(2-hydroxyethyl)amino]-N-(4-isobutyloxyphenyl)-benzamide] | ≤ 100
21 | NC(=O)CN(c1ccc(Cl)cn1)c1cc(C(=O)Nc2ccc(C(F)(F)F)cc2)ccc1Cl [Example 70] | ≤ 100
22 | CN(c1cc(C(=O)Nc2ccc(C(C)(C)C)cc2)ccc1OCCO)c1ncccc1Cl [Example 18, N-(4-tert-butylphenyl)-3-[N-(3-chloropyridin-2-yl)-N-methyl-amino]-4-(2-hydroxyethyl)oxybenzamide] | ≤ 100
23 | CCN(c1cc(C(=O)Nc2ccc(C(C)(C)C)cc2)ccc1OC)c1ncccc1Cl [Example 10, N-(4-tert-butylphenyl)-3-[N-(3-chloropyridin-2-yl)-N-ethyl]amino-4-methoxybenzamide] | ≤ 100
24 | CN(c1cc(C(=O)Nc2ccc(C(C)(C)C)cc2)ccc1Oc1ccccc1)c1ncccc1Cl [Example 5, N-(4-tert-butylphenyl)-3-[N-(3-chloropyridin-2-yl)-N-methyl]amino-4-phenoxybenzamide] | ≤ 100
25 | O=C(Nc1ccc(C(F)(F)F)cc1)c1cccc(N(CCO)c2ncccc2Cl)c1 [Example 54, 3-[N-(3-chloropyridin-2-yl)-N-(2-hydroxyethyl)amino]-N-(4-trifluoromethylphenyl)-benzamide] | ≤ 100
26 | Cc1c(C(=O)Nc2ccc(C(C)(C)C)cc2)cccc1N(C)c1ncccc1Cl [Example 6, N-(4-tert-butylphenyl)-3-[N-(3-chloropyridin-2-yl)-N-methyl-amino]-2-methylbenzamide] | ≤ 100
27 | Cc1ccc(C(=O)Nc2ccc(C(F)(F)F)cc2)cc1N(CC(N)=O)c1ncccc1Cl [Example 63, 3-[N-(3-chloropyridin-2-yl)-N-(carbamoylmethyl)amino]-4-methyl-N-(4-trifluoromethylphenyl)-benzamide] | ≤ 100
28 | COc1ccc(C(=O)Nc2ccc(OCC(C)C)cc2)cc1N(CCO)c1ncccc1Cl [Example 50, 3-[N-(3-chloropyridin-2-yl)-N-(2-hydroxyethyl)amino]-N-(4-isobutyloxyphenyl)-4-methoxy-benzamide] | ≤ 100
29 | O=C(Nc1ccc(Cl)c(C(F)(F)F)c1)c1ccc(Cl)c(N(CCO)c2ncccc2Cl)c1 [Example 39, 4-chloro-3-[N-(3-chloropyridin-2-yl)-N-(2-hydroxyethyl)amino]-N-(4-chloro-3-trifluoromethylphenyl)benzamide] | ≤ 100
30 | CN(c1cc(C(=O)Nc2ccc(OC(F)(F)F)cc2)ccc1Cl)c1ncc(CO)cc1Cl [Example 81, 4-chloro-3-[N-(3-chloro-5-hydroxymethylpyridin-2-yl)-N-methyl-amino]-N-(4-trifluoromethoxyphenyl)-benzamide] | ≤ 100
31 | CN(C)C(=O)c1cnc(N(C)c2cc(C(=O)Nc3ccc(C(C)(C)C)cc3)ccc2Cl)c(Cl)c1 [Example 77, 6-{[5-(4-tert-butylphenylcarbamoyl)-2-chlorophenyl]-methyl-amino}-5-chloro-N,N-dimethylnicotinamide] | 100 to 1000
32 | CN(c1cccc(C(=O)Nc2ccc(C(C)(C)C)cc2)c1)c1ccccn1 [Example 2, N-(4-tert-butylphenyl)-3-[N-(pyridin-2-yl)-N-methyl-amino]benzamide, hydrochloride salt] | 100 to 1000
